Experimental findings from ChEMBL document CHEMBL1141099, “Discovery of N-(2,6-dimethylphenyl)-substituted semicarbazones as anticonvulsants: hybrid pharmacophore-based design” (2005) are described below.

The subject of assay [1] is Rattus norvegicus. Put plainly: Effect on GABA level in rat whole brain concentration after 2 hr post-treatment at a dose of 100 mg/Kg when given i.p.; Control 48.4. The assay is classed as functional.
The test system of assay [2] is Rattus norvegicus. Briefly: Effect on GABA level in rat whole brain concentration after 7 days post-treatment at a dose of 30 mg/Kg when given orally; Control 50.5. The assay is classed as functional.
Assay [3] concerns Rattus norvegicus. Briefly: Number of rats protected at a dose of 30 mg/Kg when given oral at 0.25 hr upon maximal electroshock seizure; Total number of rats = 4. The assay is classed as functional.
The target of assay [4] is 4-aminobutyrate aminotransferase, mitochondrial (Rattus norvegicus) (UniProt P50554). Put plainly: In vitro percentage inhibition activity against GABA-T enzyme at a concentration of 0.625 uM after 4.5 h.
4-aminobutyrate aminotransferase, mitochondrial (Rattus norvegicus), sequence (P50554 28-500 limits assumed): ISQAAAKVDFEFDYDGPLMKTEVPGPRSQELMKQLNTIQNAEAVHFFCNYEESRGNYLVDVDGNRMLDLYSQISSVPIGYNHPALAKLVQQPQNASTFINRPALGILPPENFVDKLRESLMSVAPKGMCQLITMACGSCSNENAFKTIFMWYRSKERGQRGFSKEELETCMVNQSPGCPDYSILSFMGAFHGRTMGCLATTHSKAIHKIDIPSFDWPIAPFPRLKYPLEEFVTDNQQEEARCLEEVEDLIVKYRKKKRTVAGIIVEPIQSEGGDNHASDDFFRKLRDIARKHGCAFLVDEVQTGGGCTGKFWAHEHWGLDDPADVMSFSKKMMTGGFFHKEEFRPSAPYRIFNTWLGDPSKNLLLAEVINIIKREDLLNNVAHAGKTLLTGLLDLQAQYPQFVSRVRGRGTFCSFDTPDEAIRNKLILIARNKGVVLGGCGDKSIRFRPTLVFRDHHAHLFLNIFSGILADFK
Assay [5] relates to Mus musculus. Put plainly: Minimum dose required for anticonvulsant activity when given i.p., at 0.5 hr in mice upon maximal electroshock seizure. The assay is classed as functional.
In assay [6] the test system is Rattus norvegicus. Put plainly: Number of rats protected at a dose of 30 mg/Kg when given oral at 4 hr upon maximal electroshock seizure; Total number of rats = 4. It is filed as functional.
Assay [7] has as its system Rattus norvegicus. Briefly: Number of rats protected at a dose of 30 mg/Kg when given oral at 0.5 hr upon maximal electroshock seizure; Total number of rats = 4. It is filed as functional.
Assay [8] is filed under the species Rattus norvegicus. Put plainly: Ex vitro percentage inhibition activity against GABA-T enzyme at a concentration of 1.25 uM after 6 h. It is filed as functional.
Assay [9] has as its system Mus musculus. Put plainly: Minimum dose required for anticonvulsant activity when given i.p., at 0.5 hr in mice upon subcutaneous strychnine seizure. It is filed as functional.
Assay [10] has as its system Mus musculus. Briefly: Post treatment activity score for CNS study using a actophotometer at a dose of 100 mg/Kg after 1 hr when given i.p., in mice (No. of animals 6); Control (24h before) 245.
The target of assay [11] is 4-aminobutyrate aminotransferase, mitochondrial (Rattus norvegicus) (UniProt P50554). Briefly: In vitro percentage inhibition activity against GABA-T enzyme at a concentration of 0.625 uM after 6 h.
Assay [12] relates to Rattus norvegicus. Briefly: Number of rats protected at a dose of 30 mg/Kg when given oral at 2 hr upon maximal electroshock seizure; Total number of rats = 4. The assay is classed as functional.
For assay [13], the system named is Mus musculus. Put plainly: Minimum dose required for anticonvulsant activity when given i.p., at 2 hr in mice upon subcutaneous strychnine seizure. It is filed as functional.
Assay [14] has as its system Mus musculus. Put plainly: Minimum dose required for anticonvulsant activity when given i.p., at 0.5 hr in mice upon subcutaneous pentylenetetrazole seizure. The assay is classed as functional.
The species entered for assay [15] is Rattus norvegicus. Put plainly: Ex vitro percentage inhibition activity against GABA-T enzyme at a concentration of 1.25 uM after 3 h. It is filed as functional.
For assay [16], the system named is Mus musculus. Put plainly: Minimum dose required for anticonvulsant activity when given i.p., at 0.5 hr in mice upon neurotoxicity seizure using rotarod test. It is filed as functional.
The species entered for assay [17] is Rattus norvegicus. Briefly: Protective index between effective dose and toxic dose in rat. The assay is classed as functional.
Assay [18] has as its system Mus musculus. Put plainly: Post treatment activity score for CNS study using a actophotometer at a dose of 100 mg/Kg after 0.5 hr when given i.p., in mice (No. of animals 6); Control (24h before) 245.
The target in assay [19] is 4-aminobutyrate aminotransferase, mitochondrial (Rattus norvegicus) (UniProt P50554). Briefly: In vitro percentage inhibition activity against GABA-T enzyme at a concentration of 0.625 uM after 3 h.
For assay [20], the system named is Mus musculus. Put plainly: Post treatment immobility time for CNS study using Porsolt's swimpool test at a dose of 100 mg/Kg after 1 hr when given i.p., in mice (No. of animals 6); Control (24h before) 182.
In assay [21] the test system is Rattus norvegicus. Put plainly: Toxic dose observed for anticonvulsant activity when given i.p., at 2 hr in rat upon neurotoxicity seizure. It is filed as functional. Conditions: ip.
The test system of assay [22] is Mus musculus. Put plainly: Minimum dose required for anticonvulsant activity when given i.p., at 4 hr in mice upon maximal electroshock seizure. It is filed as functional.
In assay [23] the test system is Rattus norvegicus. Briefly: Number of rats protected at a dose of 30 mg/Kg when given oral at 1 hr upon maximal electroshock seizure; Total number of rats = 4. It is filed as functional.
The subject of assay [24] is Rattus norvegicus. Put plainly: Effective dose required for anticonvulsant activity when given i.p., at 2 hr in rat upon maximal electroshock seizure. The assay is classed as functional. The conditions noted are these: ip.
For assay [25], the species on record is Rattus norvegicus. Put plainly: Ex vitro percentage inhibition activity against GABA-T enzyme at a concentration of 1.25 uM after 4.5 h. The assay is classed as functional.
In assay [26] the test system is Mus musculus. Put plainly: Mean sleeping time evaluated for CNS study using the pentobarbital-induced narcosis model at a dose of 100 mg/Kg when given i.p., in mice (No. of animals 6).
The test system of assay [27] is Mus musculus. Briefly: Minimum dose required for anticonvulsant activity when given i.p., in mice upon neurotoxicity seizure using rotarod test.
Assay [28] concerns Mus musculus. Put plainly: Post treatment activity score for CNS study using a actophotometer at a dose of 100 mg/Kg after 1 hr when given i.p., in mice (No. of animals 6); Control (24h before) 224.
The test system of assay [29] is Mus musculus. Put plainly: Post treatment activity score for CNS study using a actophotometer at a dose of 100 mg/Kg after 0.5 hr when given i.p., in mice (No. of animals 6); Control (24h before) 224.

On to `CN1C(=O)CC(=O)N(c2ccccc2)c2cc(Cl)ccc21` [CLOBAZAM], for which the results for the Activity in the assay on Rattus norvegicus [1] and with Rattus norvegicus [2] were 101 ug/100mg of tissue and 110 ug/100mg of tissue, respectively.
Turning to `Cc1cccc(C)c1NC(=O)N/N=C/c1ccc(N(C)C)cc1`, the Activity in the assay with Rattus norvegicus [3] is reported as 1; in the assay on Rattus norvegicus [6], 4; with Rattus norvegicus [7], 2; in the assay with Mus musculus [10] it was 124; in the assay with Rattus norvegicus [1], 75.5 ug/100mg of tissue; in the assay with Rattus norvegicus [12] it was 3. The Activity with Rattus norvegicus [2] is 68.1 ug/100mg of tissue; in the assay with Mus musculus [18], 147; in the assay on Mus musculus [20] it was 207; in the assay with Rattus norvegicus [23], 2. Besides, the figures for the inhibition in [4], in [11] and in [19] were 64%, 0% and 0%, respectively. Further, the MES worked out at 100 mg/kg in the assay on Mus musculus [5] and 300 mg/kg in the assay on Mus musculus [22]. The values for the Inhibition in the assay listed under Rattus norvegicus [8], in the assay listed under Rattus norvegicus [15] and in the assay listed under Rattus norvegicus [25] were 9%, 0% and 0%, respectively. The STY seizure in the assay on Mus musculus [9] and with Mus musculus [13] was 100 mg/kg throughout. In addition, the PTZ seizure in the assay with Mus musculus [14] amounted to 300 mg/kg. This compound came in with an NT in the assay on Mus musculus [16] of 300 mg/kg. This compound returned a PI in the assay filed under Rattus norvegicus [17] of more than 13.6. Further, the TD50 in the assay with Rattus norvegicus [21] was more than 250 mg/kg. Also, the 50% effect level with Rattus norvegicus [24] (ED50) was put at a dose of 18.3 mg/kg.
In the assay with Mus musculus [26], `CCC1(c2ccccc2)C(=O)NC(=O)NC1=O` [PHENOBARBITAL] came in with a Time of 54 min. For the same compound, the NT in the assay with Mus musculus [27] amounted to 100 mg/kg.
Consider `Cc1cccc(C)c1NC(=O)/N=N/c1c(O)[nH]c2ccc(F)cc12`, for which the Activity with Rattus norvegicus [3] is reported as 1; with Rattus norvegicus [6], 3; in the assay on Rattus norvegicus [7], 1; with Mus musculus [28], 194; in the assay on Rattus norvegicus [12], 1; with Mus musculus [29], 204. The same compound came in with an Activity with Rattus norvegicus [23] of 1. In addition, the results for the MES with Mus musculus [5] and in the assay with Mus musculus [22] were 100 mg/kg and 300 mg/kg, respectively. Moreover, the STY seizure with Mus musculus [9] turned out to be 30 mg/kg; with Mus musculus [13] it was 100 mg/kg. This compound showed a PTZ seizure with Mus musculus [14] of 300 mg/kg. In addition, the NT in the assay with Mus musculus [16] was found to be 300 mg/kg.
The compound `CCCC(CCC)C(=O)O` [VALPROIC ACID] showed an NT with Mus musculus [27] of 300 mg/kg.
